Assay results as given in patent US12441726B2, “Compounds and uses thereof” (Foghorn Therapeutics Inc., priority 2020, dated 2025).

Experiments:
BRM = BRM (Homo sapiens, UniProt P51531); experiment: ATPase catalytic activity assay (ADP-Glo), BRM; settings: 30 nM BRM, 400 μM ATP; for IC50: BRM ATPase: IC50 (uM)
BRG-1 = BRG-1 (Homo sapiens, UniProt P51532); experiment: ATPase catalytic activity assay (ADP-Glo), BRG-1; settings: for Emax: 1 h, read-out: BRG1 Max % Inhibition, ADP-Glo, 30 nM BRG-1, 400 μM ATP
Sequence of BRG-1 (P51532 whole entry): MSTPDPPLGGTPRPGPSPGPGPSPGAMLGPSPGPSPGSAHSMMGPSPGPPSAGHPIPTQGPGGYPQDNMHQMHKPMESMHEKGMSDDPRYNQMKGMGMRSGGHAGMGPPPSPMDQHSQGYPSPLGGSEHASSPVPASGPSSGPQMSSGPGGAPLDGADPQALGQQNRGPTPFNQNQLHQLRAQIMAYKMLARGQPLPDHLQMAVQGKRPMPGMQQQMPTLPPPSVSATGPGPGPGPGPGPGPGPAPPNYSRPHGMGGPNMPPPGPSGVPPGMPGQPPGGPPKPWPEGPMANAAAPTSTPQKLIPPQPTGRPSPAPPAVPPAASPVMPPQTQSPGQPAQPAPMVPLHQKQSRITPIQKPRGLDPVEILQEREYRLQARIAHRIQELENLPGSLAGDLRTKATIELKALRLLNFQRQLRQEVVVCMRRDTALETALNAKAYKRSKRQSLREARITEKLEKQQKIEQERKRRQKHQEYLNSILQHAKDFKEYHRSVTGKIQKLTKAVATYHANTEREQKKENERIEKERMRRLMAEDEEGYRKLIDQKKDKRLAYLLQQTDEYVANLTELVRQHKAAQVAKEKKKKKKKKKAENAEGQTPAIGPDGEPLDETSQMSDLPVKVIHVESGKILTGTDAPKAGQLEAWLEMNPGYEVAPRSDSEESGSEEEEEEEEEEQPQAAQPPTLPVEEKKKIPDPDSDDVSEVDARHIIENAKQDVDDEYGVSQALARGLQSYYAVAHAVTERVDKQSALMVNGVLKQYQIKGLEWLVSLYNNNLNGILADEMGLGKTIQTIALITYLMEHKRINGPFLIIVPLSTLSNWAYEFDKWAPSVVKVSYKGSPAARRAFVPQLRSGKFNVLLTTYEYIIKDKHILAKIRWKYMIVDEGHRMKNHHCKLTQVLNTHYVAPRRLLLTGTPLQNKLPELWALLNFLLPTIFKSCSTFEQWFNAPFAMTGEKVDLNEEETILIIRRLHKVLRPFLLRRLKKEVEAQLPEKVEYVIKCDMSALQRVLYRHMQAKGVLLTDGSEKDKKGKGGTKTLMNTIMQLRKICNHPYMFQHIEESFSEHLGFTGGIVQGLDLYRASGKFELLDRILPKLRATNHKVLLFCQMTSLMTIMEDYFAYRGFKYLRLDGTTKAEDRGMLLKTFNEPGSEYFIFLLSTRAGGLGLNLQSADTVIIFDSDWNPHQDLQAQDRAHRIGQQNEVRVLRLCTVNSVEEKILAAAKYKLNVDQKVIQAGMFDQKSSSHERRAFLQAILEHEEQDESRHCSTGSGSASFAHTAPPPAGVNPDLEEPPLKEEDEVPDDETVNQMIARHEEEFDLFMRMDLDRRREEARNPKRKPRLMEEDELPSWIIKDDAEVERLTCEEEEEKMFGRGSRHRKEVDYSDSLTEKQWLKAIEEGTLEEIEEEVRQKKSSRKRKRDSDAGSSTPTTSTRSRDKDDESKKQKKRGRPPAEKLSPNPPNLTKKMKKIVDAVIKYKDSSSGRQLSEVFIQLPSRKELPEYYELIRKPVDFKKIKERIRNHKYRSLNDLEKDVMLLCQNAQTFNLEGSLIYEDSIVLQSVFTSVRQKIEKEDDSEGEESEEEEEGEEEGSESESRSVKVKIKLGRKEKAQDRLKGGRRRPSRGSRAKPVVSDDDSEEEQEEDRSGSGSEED

Sequence of BRM (P51531 whole entry): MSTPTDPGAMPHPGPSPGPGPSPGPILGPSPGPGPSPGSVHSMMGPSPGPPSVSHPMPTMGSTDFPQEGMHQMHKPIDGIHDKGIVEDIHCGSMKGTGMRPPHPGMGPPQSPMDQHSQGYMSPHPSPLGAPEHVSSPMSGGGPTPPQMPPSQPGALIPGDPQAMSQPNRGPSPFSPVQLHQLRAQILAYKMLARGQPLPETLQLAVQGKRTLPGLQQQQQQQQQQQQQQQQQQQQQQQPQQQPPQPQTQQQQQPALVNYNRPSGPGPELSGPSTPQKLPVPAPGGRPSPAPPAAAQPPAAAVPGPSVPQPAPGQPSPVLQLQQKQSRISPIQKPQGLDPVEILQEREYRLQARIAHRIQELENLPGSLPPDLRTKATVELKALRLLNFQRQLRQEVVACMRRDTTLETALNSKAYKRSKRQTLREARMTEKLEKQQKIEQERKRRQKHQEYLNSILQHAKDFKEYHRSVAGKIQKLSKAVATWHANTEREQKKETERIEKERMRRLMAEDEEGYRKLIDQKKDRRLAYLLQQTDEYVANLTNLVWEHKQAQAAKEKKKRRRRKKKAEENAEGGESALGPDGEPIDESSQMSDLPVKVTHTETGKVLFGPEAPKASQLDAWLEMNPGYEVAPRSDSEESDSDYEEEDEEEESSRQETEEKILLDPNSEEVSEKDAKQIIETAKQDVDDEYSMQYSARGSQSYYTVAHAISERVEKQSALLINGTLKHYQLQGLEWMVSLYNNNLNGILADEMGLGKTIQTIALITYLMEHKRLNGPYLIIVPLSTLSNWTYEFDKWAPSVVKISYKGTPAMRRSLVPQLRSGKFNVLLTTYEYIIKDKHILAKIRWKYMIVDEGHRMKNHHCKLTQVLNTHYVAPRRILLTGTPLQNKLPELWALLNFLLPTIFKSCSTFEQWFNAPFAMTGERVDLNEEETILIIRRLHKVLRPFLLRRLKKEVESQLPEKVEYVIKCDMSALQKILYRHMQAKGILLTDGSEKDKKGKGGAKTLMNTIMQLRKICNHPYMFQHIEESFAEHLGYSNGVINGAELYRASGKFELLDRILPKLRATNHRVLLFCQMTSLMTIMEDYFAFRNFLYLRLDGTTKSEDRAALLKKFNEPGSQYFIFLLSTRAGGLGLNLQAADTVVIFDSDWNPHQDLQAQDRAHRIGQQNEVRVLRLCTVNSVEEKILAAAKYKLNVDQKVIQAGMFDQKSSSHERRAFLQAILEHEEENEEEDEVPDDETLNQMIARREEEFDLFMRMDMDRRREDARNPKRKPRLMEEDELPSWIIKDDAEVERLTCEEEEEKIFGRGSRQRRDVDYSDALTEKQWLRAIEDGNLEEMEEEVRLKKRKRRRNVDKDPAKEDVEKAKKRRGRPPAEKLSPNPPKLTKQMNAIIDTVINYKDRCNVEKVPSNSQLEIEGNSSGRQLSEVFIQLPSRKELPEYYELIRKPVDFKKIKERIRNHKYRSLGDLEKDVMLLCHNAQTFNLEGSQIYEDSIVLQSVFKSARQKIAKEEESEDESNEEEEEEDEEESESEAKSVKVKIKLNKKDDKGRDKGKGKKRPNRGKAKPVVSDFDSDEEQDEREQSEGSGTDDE

| BRM Max % Inhibition (BRM) [%] | IC50 (BRM) [µM] | IC50 (BRG-1) [nM] | Emax (BRG-1) [%] | Structure (SMILES) |
| --- | --- | --- | --- | --- |
| 95 | 0.1 to 0.5 | 500 to 1000 | 61 | Cn1ncc2c1CN(c1ccc3cnc(CNC(=O)c4ccc5c(c4)[C@](C)(C#N)COC5)cc3n1)CC2 [Compound 457] |
| 98 | < 0.1 | 100 to 500 | 89 | C[C@@]1(C#N)COCc2ccc(C(=O)NCc3cc4nc(-c5ccnc(C6CCC6)n5)ccc4cn3)cc21 [Compound 420] |
| 99 | < 0.1 | 100 to 500 | 91 | COc1cccc(-c2ccc3cnc(CNC(=O)c4ccc5c(c4)[C@](C)(C#N)COC5)cc3n2)n1 [Compound 492] |
| 95 | < 0.1 | 500 to 1000 | 83 | C[C@@]1(C#N)COCc2ncc(C(=O)NCc3cc4nc(-c5cccc(C(F)F)c5)ccc4cn3)cc21 [Compound 500] |
| 98 | < 0.1 | 100 to 500 | 88 | COc1nccc(-c2ccc3cnc(CNC(=O)c4ccc5c(c4)[C@](C)(C#N)COC5)cc3n2)c1F [Compound 432] |
| 105 | < 0.1 | 100 to 500 | 95 | C[C@@]1(C#N)COCc2ccc(C(=O)NCc3cc4nc(-c5ccnc(N6CC7CC7C6)n5)ccc4cn3)cc21 (stereo partly shown) [Compound 321] |
| 97 | < 0.1 | 100 to 500 | 77 | COc1cnccc1-c1ccc2cnc(CNC(=O)c3ccc4c(c3)[C@](C)(C#N)COC4)cc2n1 [Compound 507] |
| 96 | 0.1 to 0.5 | > 1000 | 54 | C[C@@]1(C#N)COCc2ccc(C(=O)NCc3cc4nc(N5CCCN(C6CCC6)C5=O)ccc4cn3)cc21 [Compound 350] |
| 101 | < 0.1 | 100 to 500 | 94 | C[C@@]1(C#N)COCc2ccc(C(=O)NCc3cc4nc(-c5cncc(N6CC(F)C6)n5)ccc4cn3)cc21 [Compound 374] |
| 99 | < 0.1 | 100 to 500 | 87 | CN1Cc2nc(-c3ccc4cnc(CNC(=O)c5ccc6c(c5)[C@](C)(C#N)COC6)cc4n3)ccc2C1=O [Compound 427] |
| 100 | < 0.1 | 100 to 500 | 99 | C[C@@]1(C#N)COCc2ccc(C(=O)NCc3cc4nc(-c5cccc(N6CCCC6=O)n5)ccc4cn3)cc21 [Compound 378] |
| 101 | < 0.1 | 100 to 500 | 96 | COCCOCCC(=O)N1CCN(c2cccc(-c3ccc4cnc(CNC(=O)c5ccc6c(c5)[C@](C)(C#N)COC6)cc4n3)n2)CC1 [Compound 278] |
| 102 | < 0.1 | < 100 | 94 | Cn1ccc2ncc(-c3ccc4cnc(CNC(=O)c5ccc6c(c5)[C@](C)(C#N)COC6)cc4n3)nc21 [Compound 346] |
| 104 | < 0.1 | < 100 | 95 | C[C@@]1(C#N)COCc2ccc(C(=O)NCc3cc4cc(-c5cccc(N6CCC6)n5)ccc4cn3)cc21 [Compound 369] |
| 94 | 0.1 to 0.5 | 500 to 1000 | 57 | COc1cncc(-c2nc3cc(CNC(=O)c4ccc5c(c4)[C@](C)(C#N)COC5)ncc3s2)n1 [Compound 344] |
| 96 | 0.1 to 0.5 | 500 to 1000 | 77 | C[C@@]1(C#N)COCc2ccc(C(=O)NCc3cc4nc(-c5cccc(C(=O)N6CCC6)c5)ccc4cn3)cc21 [Compound 484] |
| 92 | 0.1 to 0.5 | > 1000 | 48 | CN(C)c1cccn(-c2ccc3cnc(CNC(=O)c4ccc5c(c4)[C@](C)(C#N)COC5)cc3n2)c1=O [Compound 281] |
| 100 | < 0.1 | 100 to 500 | 93 | C[C@@]1(F)COCc2ccc(C(=O)NCc3cc4nc(-c5cccc(N6CCC6)n5)ccc4cn3)cc21 [Compound 295] |
| 96 | 0.1 to 0.5 | 500 to 1000 | 72 | C[C@@]1(C#N)COCc2ccc(C(=O)NCc3cc4nc(-c5cc(F)cc(F)c5)ccc4cn3)cc21 [Compound 518] |

Second part, the compound before the results:

| Structure (SMILES) | BRM Max % Inhibition (BRM) [%] | IC50 (BRM) [µM] | IC50 (BRG-1) [nM] | Emax (BRG-1) [%] |
| --- | --- | --- | --- | --- |
| C[C@@]1(C#N)COCc2ccc(C(=O)NCc3cc([C@H]4C[C@@H]4c4ccccc4)ccn3)cc21 [Compound 7] | 81 | > 1 | > 1000 | 12 |
| COC(=O)c1cccc(/C=C/c2ccnc(CNC(=O)c3ccc4c(c3)[C@](C)(C#N)COC4)c2)c1 [Compound 26] | 100 | < 0.1 | 100 to 500 | 90 |
| COC(=O)c1cccc(-c2ccc3cnc(CNC(=O)c4ccc5c(c4)[C@](C)(C#N)COC5)cc3n2)c1 [Compound 93] | 99 | < 0.1 | 100 to 500 | 93 |
| COc1cccc2c1CCN(c1ccnc(CNC(=O)c3ccc4c(c3)[C@](C)(C#N)COC4)c1)C2 [Compound 56] | 98 | < 0.1 | 100 to 500 | 92 |
| C[C@@]1(C#N)COCc2ccc(C(=O)NCc3cc([C@H]4C[C@@H](c5cccc(N6CCOCC6)n5)C4)ccn3)cc21 [Compound 80] | 83 | 0.1 to 0.5 | > 1000 | 29 |
| COc1nn(C)cc1-c1ccc2nnc(CNC(=O)c3ccc4c(c3)[C@](C)(F)COC4)cc2n1 [Compound 275] | 96 | < 0.1 | 500 to 1000 | 77 |
| C[C@@]1(C#N)COCc2ccc(C(=O)NCc3cc(N4CC(c5ccccc5)C4)ccn3)cc21 [Compound 32] | 89 | > 1 | > 1000 | 55 |
| C[C@@]1(C#N)COCc2ccc(C(=O)NCc3cc(OCc4ccccc4)ccn3)cc21 [Compound 6] | 95 | 0.1 to 0.5 | > 1000 | 44 |
| C[C@@]1(C#N)COCc2ccc(C(=O)NCc3cc4nc(N5CCCCC5)ccc4cn3)cc21 [Compound 103] | 94 | 0.1 to 0.5 | > 1000 | 71 |
| C[C@@]1(C#N)COCc2ccc(C(=O)NCc3cc4nc(-c5cccc(C(F)F)c5)ccc4cn3)cc21 [Compound 98] | 97 | < 0.1 | > 1000 | 81 |
| C[C@@]1(C#N)COCc2ccc(C(=O)NCc3cc(/C(F)=C(\F)c4ccccc4)ccn3)cc21 [Compound 9] | 95 | 0.1 to 0.5 | > 1000 | 56 |
| C[C@@]1(F)COCc2ccc(C(=O)NCc3cc4cc(-c5ccnn(C6CC6)c5=O)ccc4cn3)cc21 [Compound 257] | 92 | 0.1 to 0.5 | 500 to 1000 | 65 |
| C[C@@]1(C#N)COCc2ccc(C(=O)NCc3cc([C@@H]4C[C@H]4c4ccccc4)ccn3)cc21 [Compound 8] | 73 | > 1 | > 1000 | 9 |
| C[C@@]1(C#N)COCc2ccc(C(=O)NCc3cc(N4CC(n5ccc6ccccc65)C4)ccn3)cc21 [Compound 59] | 93 | 0.1 to 0.5 | 500 to 1000 | 56 |
| C[C@@]1(C#N)COCc2ccc(C(=O)NCc3cc(C4CCN(c5ccccc5)C4)ccn3)cc21 (stereo partly shown) [Compound 62] | 90 | 0.1 to 0.5 | > 1000 | 42 |
| C[C@@]1(F)COCc2ccc(C(=O)NCc3cc4nc(-c5cccc(C6(O)CCOC6)n5)ccc4cn3)cc21 (stereo partly shown) [Compound 249] | 97 | 0.1 to 0.5 | 500 to 1000 | 71 |
| C[C@@]1(C#N)COCc2ccc(C(=O)NCc3cc4nn(-c5cccc(N6CCC6)n5)cc4cn3)cc21 [Compound 166] | 91 | 0.1 to 0.5 | > 1000 | 40 |
| C[C@@]1(C#N)COc2ccc(C(=O)NCc3cc4nc(-c5ccccc5)sc4cn3)cc21 [Compound 117] | 74 | > 1 | > 1000 | 27 |
| COc1ccccc1-c1cnc2cnc(CNC(=O)c3ccc4c(c3)[C@](C)(F)COC4)cc2n1 [Compound 256] | 98 | < 0.1 | 500 to 1000 | 76 |
| Cn1ncc2c(-c3ccc4cnc(CNC(=O)c5ccc6c(c5)[C@](C)(C#N)COC6)cc4n3)cccc21 [Compound 182] | 99 | < 0.1 | 100 to 500 | 95 |
| C[C@@]1(C#N)COCc2ccc(C(=O)NCc3cc4nc(-c5ccnc([C@@H]6CC6(F)F)n5)ccc4cn3)cc21 [Compound 218] | 99 | < 0.1 | 500 to 1000 | 79 |
| Cc1cc2c(-c3ccc4cnc(CNC(=O)c5ccc6c(c5)[C@](C)(C#N)COC6)cc4n3)cccc2n1C [Compound 172] | 99 | < 0.1 | < 100 | 97 |
| CC1(c2nccc(-c3ccc4cnc(CNC(=O)c5ccc6c(c5)[C@](C)(C#N)COC6)cc4n3)n2)COC1 [Compound 137] | 88 | 0.1 to 0.5 | > 1000 | 39 |
| C[C@@]1(C#N)COCc2ccc(C(=O)NCc3cc4nc(C5CC5)ccc4cn3)cc21 [Compound 94] | 83 | > 1 | > 1000 | 45 |
